In the supplement of paper PMC10307832:

Assays:
[1] = compound: c1ccc2c(CCNc3ccc(Nc4ccncc4)cc3)c[nH]c2c1 [Serdemetan]; experiment: relative viability (nuclei count vs DMSO), 5 days (fraction); higher = more cells survive
How it was run: (§1)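 Only plates meeting two conditions passed: control CV below 25% and at least one doubling. Lung cancer cell lines, kept overnight at 37 °C in 1536-well plates, were pinned with five library-drug doses (not always all listed) √10 apart on vehicle-anchored plates and grown 5 days without medium change. A one-step fix, permeabilisation and Hoechst stain preceded 4× imaging and MetaXpress nuclear counting. Viability equals treated-well nuclei divided by vehicle-well nuclei, as the median over plates.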

[2] = compound: C1CC(C2=C(C1)C3=C(N2)C=CC(=C3)Cl)C(=O)N [Selisistat]; experiment: as above
How it was run: as §1

Row | Cell Line | relative viability ([1]; 0.04 µM) | relative viability ([1]; 0.1265 µM) | relative viability ([1]; 0.4 µM) | relative viability ([1]; 1.265 µM) | relative viability ([1]; 4 µM) | relative viability ([2]; 0.4 µM) | relative viability ([2]; 1.265 µM) | relative viability ([2]; 4 µM) | relative viability ([2]; 12.65 µM) | relative viability ([2]; 40 µM)
1 | 201T | 0.983 | 0.987 | 0.937 | 0.919 | 0.919 | 1.02 | 0.996 | 0.875 | 1.01 | 0.996
2 | A549 | 0.907 | 0.938 | 0.932 | 0.778 | 0.59 | 1.05 | 0.901 | 0.952 | 0.898 | 0.982
3 | A-427 | 0.954 | 1 | 1.03 | 0.762 | 0.825 | 1.03 | 0.984 | 0.845 | 0.971 | 0.944
4 | ABC-1 | 0.948 | 0.923 | 0.994 | 0.603 | 0.56 | 0.897 | 0.869 | 0.647 | 0.772 | 0.819
5 | BEN | 0.996 | 0.924 | 1.02 | 0.686 | 0.882 | 1.01 | 0.967 | 0.738 | 0.878 | 0.9
6 | CAL-12T | 0.967 | 1.05 | 1.01 | 0.932 | 0.927 | 0.964 | 0.987 | 0.747 | 0.881 | 1
7 | COR-L23 | 0.951 | 0.988 | 1.06 | 0.823 | 0.874 | 1.05 | 1.06 | 1.08 | 0.908 | 1.01
8 | COR-L 105 | 0.971 | 0.875 | 0.734 | 0.815 | 0.89 | 0.904 | 0.895 | 0.675 | 0.855 | 0.877
9 | Calu-6 | 1 | 1.02 | 1.02 | 0.875 | 0.677 | 1.03 | 0.965 | 0.99 | 0.976 | 1
10 | ChaGo-K-1 | 0.964 | 0.95 | 0.873 | 0.624 | 0.529 | 1.02 | 0.942 | 0.8 | 0.866 | 0.97
11 | EBC-1 | 0.903 | 0.931 | 0.943 | 0.857 | 0.722 | 0.994 | 0.963 | 1.01 | 0.956 | 0.954
12 | EKVX | 0.987 | 0.987 | 0.647 | 0.627 | 0.891 | 1.05 | 0.993 | 0.788 | 0.902 | 0.92
13 | EMC-BAC-2 | 0.962 | 1.02 | 0.971 | 0.849 | 0.967 | 0.978 | 0.996 | 0.595 | 0.688 | 0.561
14 | EPLC-272H | 1.17 | 1.09 | 0.897 | 0.833 | 0.912 | 0.966 | 1.03 | – | 0.931 | 1.04
15 | H3255 | 0.968 | 0.944 | 0.987 | 0.787 | 0.896 | 0.984 | 0.943 | 0.978 | 0.948 | 1.03
16 | HARA | 0.938 | 1.01 | 0.937 | 0.757 | 0.877 | 0.955 | 0.938 | 0.749 | 0.964 | 1.07
17 | HCC-15 | 1.03 | 0.999 | 0.94 | 0.807 | 0.712 | 1.08 | 1.04 | – | 1.02 | 1.21
